Entries after “also recorded” stand apart in the source; their conditions may differ.
Columns and labels:
[1] = biological target: purified γ-secretase (Homo sapiens, UniProt P49768); test: Inhibition constant; format: biochemical; settings: double-reciprocal plots, varying C100Flag
[2] = biological target: γ-secretase (Homo sapiens, UniProt P49768); test: Cross-competition kinetic experiments between two inhibitors; format: biochemical; settings: [38] = 0, 0.15, 0.30, 0.60 nM; C100 0.50 μM; parallel lines indicate cross-competition

CC[C@@H](C)[C@@H](NC(=O)[C@H](NC(=O)[C@H](NC(=O)C(C)(C)NC(=O)CNC(=O)[C@H](NC(=O)OC(C)(C)C)C(C)C)C(C)C)C(C)C)C(=O)NC(C)(C)C(=O)N[C@@H](C(=O)N[C@@H](C(=O)NC(C)(C)C(=O)NCCCCCCCCCCC(=O)N[C@H](C(=O)N[C@@H](Cc1ccccc1)[C@H](O)CN(Cc1ccccc1)C(=O)N[C@@H](CC(C)C)C(=O)N[C@H](C(N)=O)C(C)C)C(C)C)C(C)C)[C@H](C)O [Compound 38, Boc-^DVal-Gly-Aib-^DVal-^DVal-^DIle-Aib-^DThr- ^DVal-Aib-NH(CH2)10CO-Val-Phe-ψ-Phe-Leu-Val-NH2] was tested, and the “Inhibition profile (mode of inhibition)” value [1] was “noncompetitive; also recorded: non-competitive inhibition” and the “Cross-competition with TSA 1 and HPI 2 for binding” value [2] was “could compete with both TSA 1 and HPI 2; also recorded: competes with both TSA 1 and HPI 2”.

— paper PMC8918029 (Journal of medicinal chemistry, 2021)
